From US20120053220A1, “NOVEL LIPOXYGENASE INHIBITORS AS NEUROPROTECTIVE AGENTS” (The General Hospital Corporation d/b/a Massachusetts …, priority 2007, published 2012)

Legend:
[1] = antioxidant test: quenching of the stable free radical DPPH; details: 5 μM test compound, 500 μM DPPH, absorbance 517 nm; FIG. 1B
Protocol: The rate of reaction is proportional to the antioxidant potency of the test compounds. A known free radical scavenger, nordihydroguaiaretic acid (NDGA), was used as a positive control. 10 μL, of 1 mM testing reagents to achieve final concentrations of 5 μM were added to 2 mL of 500 μM DPPH stirring in a cuvette.

15-hLOX-1 = target: T1, 15-hLOX-1 (Homo sapiens, UniProt P16050); details: natural products known to inhibit 15-hLOX-1; read-out: IC50 against 15-hLOX-1; cited from earlier work
T1 sequence (P16050 1-662): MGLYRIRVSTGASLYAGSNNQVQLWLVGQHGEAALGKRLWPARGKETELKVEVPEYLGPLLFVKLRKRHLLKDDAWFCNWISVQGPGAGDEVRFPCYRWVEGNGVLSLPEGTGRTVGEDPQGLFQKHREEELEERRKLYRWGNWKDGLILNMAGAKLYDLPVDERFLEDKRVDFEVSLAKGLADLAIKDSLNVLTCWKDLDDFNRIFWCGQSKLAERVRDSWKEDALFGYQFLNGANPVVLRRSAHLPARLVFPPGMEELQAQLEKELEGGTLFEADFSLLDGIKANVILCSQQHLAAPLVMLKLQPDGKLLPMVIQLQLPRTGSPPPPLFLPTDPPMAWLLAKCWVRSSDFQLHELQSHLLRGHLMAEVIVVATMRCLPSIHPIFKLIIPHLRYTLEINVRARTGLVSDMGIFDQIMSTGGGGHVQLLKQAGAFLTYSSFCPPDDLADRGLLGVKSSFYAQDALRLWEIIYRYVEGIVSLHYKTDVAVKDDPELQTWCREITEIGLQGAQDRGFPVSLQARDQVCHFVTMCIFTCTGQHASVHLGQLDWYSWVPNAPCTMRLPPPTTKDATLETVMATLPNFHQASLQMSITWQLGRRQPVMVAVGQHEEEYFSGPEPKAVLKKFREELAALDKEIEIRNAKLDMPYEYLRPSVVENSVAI

With `CC(Cc1ccc(O)c(O)c1)C(C)Cc1ccc(O)c(O)c1` (centres unmarked) [NDGA, nordihydroguaiaretic acid] the “antioxidant activity (quenching of DPPH radical)” value [1] was “rapid quenching”.

In the case of `C[C@H]1[C@H](C)CC[C@]2(C)CC[C@]3(C)C(=CC[C@@H]4[C@@]5(C)CC[C@@H](O)[C@](C)(C(=O)O)[C@@H]5CC[C@]43C)[C@H]12` [boswellic acid], the IC50 (15-hLOX-1) is listed as 1000 nM.
